Measured values as given in patent US9695155B2, “Herbicidal substituted pyrimidinyloxy benzene compounds” (E. I. DU PONT DE NEMOURS AND COMPANY, priority 2013, dated 2017).

Key:
ragweed [1] = test: Test A preemergence; format: in vivo, Ambrosia elatior
In short: (§1)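 Pre- and postemergence greenhouse screen. Soil: loam + sand. Spray carrier: solvent mixture, non-phytotoxic, with surfactant. Post timing at 1–2 leaves, height 2–10 cm. Readout: visual injury on a 0–100 scale roughly 10 days after application, untreated plants as reference.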

Italian ryegrass [2] = test: Test A preemergence; format: in vivo, Lolium multiflorum
In short: as §1

barnyardgrass = test: Test A postemergence; format: in vivo, Echinochloa crus-galli
In short: as §1

ragweed [3] = test: Test A postemergence; format: in vivo, Ambrosia elatior
In short: as §1

corn [4] = test: Test A postemergence; format: in vivo, Zea mays
In short: as §1

Italian ryegrass [5] = test: Test C preemergence; format: in vivo, Lolium multiflorum; conditions: for Ryegrass, Italian plant response rating: preemergence
In short: (§2)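 Whole-plant greenhouse test with surfactant-containing solvent formulation, applied preemergence to sown loam–sand pots or postemergence to 2–18 cm plants. Scored by eye 13 to 15 days on, 0–100 scale.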

wheat, winter [6] = test: Test C preemergence; format: in vivo, Triticum aestivum; conditions: for Wheat plant response rating: preemergence
In short: as §2

corn [7] = test: Test C preemergence; format: in vivo, Zea mays; conditions: for Corn plant response rating: preemergence
In short: as §2

johnsongrass [8] = test: Test C preemergence; format: in vivo, Sorghum halepense; conditions: for Johnsongrass plant response rating: preemergence
In short: as §2

yellow nutsedge [9] = test: Test C preemergence; format: in vivo, Cyperus esculentus; conditions: for Nutsedge, Yellow plant response rating: preemergence
In short: as §2

wheat, winter [10] = test: Test C postemergence; format: in vivo, Triticum aestivum
In short: as §2

corn [11] = test: Test C postemergence; format: in vivo, Zea mays
In short: as §2

large (Lg) crabgrass = test: Test C postemergence; format: in vivo, Digitaria sanguinalis
In short: as §2

giant foxtail = test: Test C postemergence; format: in vivo, Setaria faberii
In short: as §2

johnsongrass [12] = test: Test C postemergence; format: in vivo, Sorghum halepense
In short: as §2

yellow nutsedge [13] = test: Test C postemergence; format: in vivo, Cyperus esculentus
In short: as §2

[14] = 500 g ai/ha, 0 to 100 scale where 0 is no effect and 100 is complete control
[15] = 125 g ai/ha, 0 to 100 scale, 0 no effect, 100 complete control
[16] = 16 g ai/ha, scale 0 to 100 (0 no effect, 100 complete control)
[17] = 125 g ai/ha, scale 0 (no effect) to 100 (complete control)
[18] = Preemergence, 62 g ai/ha, scale 0 to 100, 0 no effect, 100 complete control
[19] = 16 g ai/ha, postemergence, 0 is no effect, 100 is complete control
[20] = 31 g ai/ha, postemergence, visual rating, scale 0 to 100 (0 no effect, 100 complete control), 13 to 15 days
[21] = 125 g ai/ha, postemergence, visual rating, scale 0 to 100 (0 no effect, 100 complete control)
[22] = Postemergence, 62 g ai/ha, scale 0 to 100 (0 no effect, 100 complete control), 13 to 15 days

With N#Cc1cnn(-c2c(Oc3ncc(F)cn3)cccc2C(F)F)c1 [Compound 240] the “Ragweed plant response rating (0 to 100 scale)” value (ragweed [1]; 125 g ai/ha) was 90, the “Ragweed plant response rating” value (ragweed [1]; [14]) was 100 and the “Ryegrass, Italian plant response rating (0 to 100 scale)” value (Italian ryegrass [2]; 125 g ai/ha) was 20. The “Ryegrass, Italian plant response rating” value (Italian ryegrass [2]; [14]) was 70, the “Plant response rating, Barnyardgrass” value (barnyardgrass; [15]) was 90 and the “Plant response rating, Barnyardgrass” value (barnyardgrass; [14]) was 100. For the same molecule, the “Plant response rating, Ragweed” value (ragweed [3]; [15]) was 100, the “Plant response rating, Ragweed” value (ragweed [3]; [14]) was 100 and the “Plant response rating, Corn” value (corn [4]; [15]) was 30. For the same molecule, the “Plant response rating, Corn” value (corn [4]; [14]) was 90, the “Ryegrass, Italian plant response rating” value (Italian ryegrass [5]; [16]) was 0 and the “Ryegrass, Italian plant response rating” value (Italian ryegrass [5]; [17]) was 50. The “Plant response rating, Ryegrass, Italian” value (Italian ryegrass [5]; [18]) was 0, the “Wheat plant response rating” value (wheat, winter [6]; [16]) was 0 and the “Wheat plant response rating” value (wheat, winter [6]; [17]) was 5. The “Plant response rating, Wheat” value (wheat, winter [6]; [18]) was 0, the “Corn plant response rating” value (corn [7]; [16]) was 5 and the “Corn plant response rating” value (corn [7]; [17]) was 35. For the same molecule, the “Plant response rating, Corn” value (corn [7]; [18]) was 5, the “Johnsongrass plant response rating” value (johnsongrass [8]; [16]) was 5 and the “Johnsongrass plant response rating” value (johnsongrass [8]; [17]) was 45. For the same molecule, the “Plant response rating, Johnsongrass” value (johnsongrass [8]; [18]) was 10, the “Nutsedge, Yellow plant response rating” value (yellow nutsedge [9]; [16]) was 0 and the “Nutsedge, Yellow plant response rating” value (yellow nutsedge [9]; [17]) was 40. For the same molecule, the “Plant response rating, Nutsedge, Yellow” value (yellow nutsedge [9]; [18]) was 15, the “Plant response rating (0 to 100), Wheat” value (wheat, winter [10]; [19]) was 0 and the “Wheat plant response rating” value (wheat, winter [10]; [20]) was 0. For the same molecule, the “Plant response rating, Wheat” value (wheat, winter [10]; [21]) was 5, the “Plant response rating, Wheat” value (wheat, winter [10]; [22]) was 5 and the “Plant response rating (0 to 100), Corn” value (corn [11]; [19]) was 0. For the same molecule, the “Corn plant response rating” value (corn [11]; [20]) was 5, the “Plant response rating, Corn” value (corn [11]; [21]) was 15 and the “Plant response rating, Corn” value (corn [11]; [22]) was 5. The “Plant response rating (0 to 100), Crabgrass, Large” value (large (Lg) crabgrass; [19]) was 10, the “Crabgrass, Large plant response rating” value (large (Lg) crabgrass; [20]) was 5 and the “Plant response rating, Crabgrass, Large” value (large (Lg) crabgrass; [21]) was 20. For the same molecule, the “Plant response rating, Crabgrass, Large” value (large (Lg) crabgrass; [22]) was 5, the “Plant response rating (0 to 100), Foxtail, Giant” value (giant foxtail; [19]) was 0 and the “Foxtail, Giant plant response rating” value (giant foxtail; [20]) was 35. The “Plant response rating, Foxtail, Giant” value (giant foxtail; [21]) was 40, the “Plant response rating, Foxtail, Giant” value (giant foxtail; [22]) was 20 and the “Plant response rating (0 to 100), Johnsongrass” value (johnsongrass [12]; [19]) was 10. For the same molecule, the “Johnsongrass plant response rating” value (johnsongrass [12]; [20]) was 5, the “Plant response rating, Johnsongrass” value (johnsongrass [12]; [21]) was 10 and the “Plant response rating, Johnsongrass” value (johnsongrass [12]; [22]) was 5. The “Plant response rating (0 to 100), Nutsedge, Yellow” value (yellow nutsedge [13]; [19]) was 0, the “Nutsedge, Yellow plant response rating” value (yellow nutsedge [13]; [20]) was 0 and the “Plant response rating, Nutsedge, Yellow” value (yellow nutsedge [13]; [21]) was 5. The “Plant response rating, Nutsedge, Yellow” value (yellow nutsedge [13]; [22]) was 0.
